Data on twelve compounds can be found in PubChem BioAssay (NCI).

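Tested at 5 concentrations; 48 h exposure; 96-well plates; endpoints linearly interpolated, else capped at highest concentration. Abbreviation: GI50, concentration required for 50% inhibition of growth. The concentration for full growth arrest is given as TGI.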 Some results are limits rather than exact numbers.

Some test systems named below: SR leukemia; OVCAR-8 ovarian; NCI/ADR-RES ovarian; HOP-92 NSCLC; IGROV1 ovarian; RXF 393 renal; MOLT-4 leukemia; SW-620 colon; SNB-75 CNS; LOX IMVI melanoma.
Holding throughout (experiment): NCI anticancer screen, dose series, 48 h

Turning to `C=C(C)C1CCC2=CC(CC3(C)OC3C3=CC(C(=O)OC)=C(C1)O3)OC2=O` (stereo not given), the TGI in the test on SR leukemia, in the test with OVCAR-8 ovarian, in the test with NCI/ADR-RES ovarian, in the test on HOP-92 NSCLC, with IGROV1 ovarian and in the test on RXF 393 renal was above 100 µM throughout. In addition, the TGI in the test with MOLT-4 leukemia, with SW-620 colon, in the test with SNB-75 CNS and in the test on LOX IMVI melanoma was above 100 µM in each case.

`CC(C)c1[nH]nc2c(NCc3ccc(-c4ccccn4)cc3)nc(SCCN(C)C)nc12`: the GI50 with SR leukemia was below 0.0294 µM; in the test on OVCAR-8 ovarian, 0.0416 µM; with NCI/ADR-RES ovarian, 0.13 µM; in the test on HOP-92 NSCLC it was 0.0585 µM; in the test on IGROV1 ovarian, 0.0579 µM; in the test on RXF 393 renal, below 0.0136 µM. Further, the GI50 with MOLT-4 leukemia is below 0.0178 µM; in the test with SW-620 colon, below 0.0135 µM; with SNB-75 CNS, 0.0223 µM; in the test on LOX IMVI melanoma, 0.123 µM. For the same compound, the TGI with SR leukemia amounted to 3.21 µM; in the test with OVCAR-8 ovarian, 15.5 µM; with NCI/ADR-RES ovarian, 11.4 µM; in the test on HOP-92 NSCLC, 0.468 µM; with IGROV1 ovarian it was 13.7 µM; in the test with RXF 393 renal it was 0.0354 µM. The TGI turned out to be 0.202 µM with MOLT-4 leukemia, 12.1 µM in the test on SW-620 colon, 0.138 µM in the test on SNB-75 CNS and 11.1 µM with LOX IMVI melanoma.

For `COc1cc2c(NC3CCN(C(C)C)CC3)nc(C3CCCCC3)nc2cc1OCCCN1CCCC1`, the GI50 was 3.25 µM in the test with SR leukemia; 3.97 µM in the test on OVCAR-8 ovarian; 24.9 µM with NCI/ADR-RES ovarian; 3.48 µM with HOP-92 NSCLC; 12.5 µM in the test with IGROV1 ovarian; 1.8 µM in the test on RXF 393 renal. Moreover, the GI50 with MOLT-4 leukemia is 3.38 µM; in the test on SW-620 colon it was 2.15 µM; in the test on SNB-75 CNS it was 2.09 µM; in the test on LOX IMVI melanoma it was 1.75 µM. For the same compound, the TGI in the test on SR leukemia is 10.2 µM; in the test on OVCAR-8 ovarian it was 15.6 µM; in the test with NCI/ADR-RES ovarian, above 78.8 µM; in the test with HOP-92 NSCLC, 15.6 µM; in the test with IGROV1 ovarian, 26.9 µM; with RXF 393 renal, 4.27 µM. For the same compound, the TGI in the test on MOLT-4 leukemia worked out at 11.6 µM; in the test on SW-620 colon it was 6.45 µM; in the test with SNB-75 CNS, 10.8 µM; with LOX IMVI melanoma it was 3.95 µM.

In the case of `O=C(N=Nc1c(Cl)c(O)c2ccccc2c1O)C(=O)Nc1cccc(C(F)(F)F)c1`, the GI50 in the test on SR leukemia was 3.08 µM; in the test with OVCAR-8 ovarian, 3.39 µM; with NCI/ADR-RES ovarian, 3.52 µM; in the test with HOP-92 NSCLC it was 1.98 µM; with IGROV1 ovarian, 2.99 µM; in the test on RXF 393 renal, 5.81 µM. Further, the GI50 was 2.93 µM in the test on MOLT-4 leukemia, 3.24 µM in the test with SW-620 colon, 3.06 µM in the test on SNB-75 CNS and 1.97 µM with LOX IMVI melanoma. Besides, the TGI with SR leukemia amounted to 17.1 µM; in the test with OVCAR-8 ovarian, 13.6 µM; in the test with NCI/ADR-RES ovarian, 17.7 µM; in the test with HOP-92 NSCLC it was 15.6 µM; in the test with IGROV1 ovarian, 21.4 µM; in the test with RXF 393 renal, 18.8 µM. In addition, the TGI came to 8.88 µM with MOLT-4 leukemia, 15.6 µM in the test with SW-620 colon, 15.5 µM in the test with SNB-75 CNS and 5.09 µM in the test on LOX IMVI melanoma.

In the case of `C=C1C(=O)O[C@@H]2CC(CO)=C([C@@H](C)CCCO)[C@@H](OC(=O)/C(C)=C\C)[C@H]12`, the TGI was 8.22 µM with SR leukemia; above 76.8 µM in the test on OVCAR-8 ovarian; 75.4 µM in the test with NCI/ADR-RES ovarian; 56.7 µM in the test with HOP-92 NSCLC; 35 µM in the test on IGROV1 ovarian; 37.7 µM in the test on RXF 393 renal. In addition, the TGI in the test on MOLT-4 leukemia was 33.4 µM; in the test with SW-620 colon it was 44.5 µM; in the test on SNB-75 CNS it was above 100 µM; with LOX IMVI melanoma, 24.3 µM.

With `c1cc(C2CCCCC2)ccc1-c1cnc2nonc2n1`, the GI50 is 0.348 µM with SR leukemia; 1.38 µM in the test with OVCAR-8 ovarian; 0.466 µM in the test with NCI/ADR-RES ovarian; 0.422 µM in the test with HOP-92 NSCLC; 1.13 µM in the test on IGROV1 ovarian; 0.514 µM with RXF 393 renal. Besides, the GI50 in the test with MOLT-4 leukemia is 0.393 µM; in the test on SW-620 colon, 0.502 µM; in the test on SNB-75 CNS it was 0.528 µM; with LOX IMVI melanoma, 0.527 µM. The TGI with OVCAR-8 ovarian is above 19.8 µM; in the test with NCI/ADR-RES ovarian it was 2.72 µM; in the test with HOP-92 NSCLC, 2.12 µM; with IGROV1 ovarian, 3.15 µM; with RXF 393 renal it was 1.56 µM; in the test on MOLT-4 leukemia, above 56.5 µM. For the same compound, the figures for the TGI in the test with SW-620 colon, in the test with SNB-75 CNS and in the test with LOX IMVI melanoma were 2.45 µM, 1.71 µM and 1.74 µM, respectively.

Regarding `Cc1nc2sc(C(=O)Nc3ccccc3)c(N)c2cc1C(O)c1ccccc1` (stereo not given), the GI50 with SR leukemia is 0.0434 µM; with OVCAR-8 ovarian it was 0.408 µM; with NCI/ADR-RES ovarian, 0.314 µM; with HOP-92 NSCLC it was 3.56 µM; in the test on IGROV1 ovarian, 0.445 µM; in the test on RXF 393 renal it was 0.27 µM. Moreover, the GI50 in the test on MOLT-4 leukemia was 0.367 µM; in the test with SW-620 colon it was 0.283 µM; in the test on SNB-75 CNS, 0.244 µM; in the test with LOX IMVI melanoma it was 0.382 µM. Besides, the TGI was above 30.5 µM in the test with SR leukemia; above 100 µM with OVCAR-8 ovarian; 28.8 µM in the test with NCI/ADR-RES ovarian; 54.5 µM with HOP-92 NSCLC; 44.4 µM in the test on IGROV1 ovarian; 1.88 µM in the test with RXF 393 renal. In addition, the TGI in the test with MOLT-4 leukemia was 25.5 µM; in the test on SW-620 colon it was above 100 µM; in the test on SNB-75 CNS it was above 72.8 µM; with LOX IMVI melanoma it was above 41.1 µM.

Turning to `CC(=O)c1ccc2c3c1[C@H]1O[C@H]1c1cccc(c1-3)[C@@H]1O[C@H]21`, the TGI in the test on SR leukemia is above 100 µM; in the test on OVCAR-8 ovarian it was 3.49 µM; in the test on NCI/ADR-RES ovarian it was 5.68 µM; with HOP-92 NSCLC, 3.69 µM; in the test on IGROV1 ovarian, 0.294 µM; in the test with RXF 393 renal, 3.82 µM. Also, the TGI in the test with MOLT-4 leukemia is above 32.6 µM; in the test on SW-620 colon, 3.01 µM; with SNB-75 CNS, 6.12 µM; in the test on LOX IMVI melanoma, 1.2 µM. The GI50 with NCI/ADR-RES ovarian was 2.3 µM.

As for `O=C1CC(Cc2n[nH]c3c2CCCC3)CC(=O)N1`, the TGI with SR leukemia, in the test on OVCAR-8 ovarian, with NCI/ADR-RES ovarian, in the test on HOP-92 NSCLC, with IGROV1 ovarian and in the test on RXF 393 renal was above 100 µM in each case. Further, the TGI in the test on MOLT-4 leukemia, in the test with SW-620 colon, in the test with SNB-75 CNS and in the test with LOX IMVI melanoma was above 100 µM throughout.

As to `CC(C)(O)CCc1cccc(C(=O)c2cnn(-c3ccc(F)cc3)c2N)c1`, the GI50 was above 25 µM in the test on SR leukemia; above 25 µM with OVCAR-8 ovarian; above 21.9 µM in the test on NCI/ADR-RES ovarian; 8.7 µM with HOP-92 NSCLC; above 25 µM with IGROV1 ovarian; above 25 µM in the test on RXF 393 renal. In addition, the GI50 in the test with MOLT-4 leukemia, with SW-620 colon, in the test on SNB-75 CNS and with LOX IMVI melanoma was above 25 µM in each case. The TGI in the test with SR leukemia, in the test on OVCAR-8 ovarian, in the test with NCI/ADR-RES ovarian, in the test on HOP-92 NSCLC, with IGROV1 ovarian and in the test with RXF 393 renal was above 25 µM throughout. Besides, the TGI in the test on MOLT-4 leukemia, with SW-620 colon, with SNB-75 CNS and with LOX IMVI melanoma was above 25 µM throughout.

`CNCC(=O)NC(CO)C(=O)NC(CO)C(=O)NC1C(C(N)=O)OC(n2ccc(N)nc2=O)C(O)C1O` (stereo not given): the GI50 in the test with SR leukemia was 16.8 µg/mL; in the test on OVCAR-8 ovarian it was 12.4 µg/mL; in the test on NCI/ADR-RES ovarian, 5.79 µg/mL; in the test with HOP-92 NSCLC, 4.83 µg/mL; with IGROV1 ovarian it was 3.33 µg/mL; in the test with RXF 393 renal it was 6.4 µg/mL. Also, the GI50 in the test with MOLT-4 leukemia is above 50 µg/mL; with SW-620 colon, above 50 µg/mL; in the test on SNB-75 CNS, 1.27 µg/mL; in the test on LOX IMVI melanoma, 2.43 µg/mL. In addition, the TGI is above 50 µg/mL in the test on SR leukemia; above 50 µg/mL in the test with OVCAR-8 ovarian; 28 µg/mL in the test with NCI/ADR-RES ovarian; above 50 µg/mL in the test with HOP-92 NSCLC; 26.4 µg/mL with IGROV1 ovarian; 35.4 µg/mL in the test on RXF 393 renal. The TGI was above 50 µg/mL in the test on MOLT-4 leukemia, above 50 µg/mL in the test on SW-620 colon, 8.92 µg/mL in the test with SNB-75 CNS and 15.9 µg/mL in the test on LOX IMVI melanoma.

In the case of `Cc1nn(Cc2ccccc2)cc1C(=O)Nc1sc2c(c1C(N)=O)CCC(=O)C2`, the GI50 in the test on SR leukemia is 1.41 µM; in the test with OVCAR-8 ovarian it was 3.27 µM; with NCI/ADR-RES ovarian, 3.36 µM; with HOP-92 NSCLC it was 1.88 µM; in the test on IGROV1 ovarian, 2.44 µM; in the test on RXF 393 renal, 2.35 µM. The GI50 in the test on MOLT-4 leukemia was 2.62 µM; in the test with SW-620 colon, 0.985 µM; with SNB-75 CNS, 1.74 µM; in the test with LOX IMVI melanoma, 1.78 µM. Besides, the TGI with SR leukemia is 8.81 µM; with OVCAR-8 ovarian, above 100 µM; in the test on NCI/ADR-RES ovarian it was 10.1 µM; in the test with HOP-92 NSCLC, 4.47 µM; with IGROV1 ovarian, 7.96 µM; in the test with RXF 393 renal it was 7.1 µM. Further, the TGI came out at 9.27 µM with MOLT-4 leukemia, 5.78 µM in the test on SW-620 colon, 6.81 µM in the test on SNB-75 CNS and 3.79 µM in the test with LOX IMVI melanoma.
